Source: US4992417A (Mount Sinai School of Medicine, priority 1988, dated 1991)

How the values were obtained:
[1] = biological target: insulin receptor (Homo sapiens, UniProt P06213); conditions: cited from earlier work; for potency compared with natural insulin: literature
[2] = biological target: T1, insulin receptors in rat liver plasma membranes (Rattus norvegicus, UniProt P15127); test: Insulin receptor binding assay (competition with 125I-insulin)
T1 construct: Rat liver plasma membranes were prepared as described by Horvat et al; from tissue; host or cells: rat liver plasma membranes
Method: Following incubation for 45 min at 24° C., the mixtures were diluted with 2.0 ml of ice cold 0.1M sodium phosphate, pH 7.4, containing 0.1% fraction V bovine serum albumin and immediately filtered through cellulose-acetate filters. The filters were washed twice with the ice cold buffer, dried, and then radioactivity was counted in a scintillation counter using Filtron-X®.
Inhibition of binding, expressed as per cent of maximum, was plotted as a function of competitor concentration. […] The maximum binding in these assays amounted to 8.2% of the input radioactivity.
Inhibition of binding, expressed as per cent of maximum, was plotted as a function of competitor concentration.

[3] = tested on: rat adipocytes; test: Lipogenesis assay (conversion of [3-3H] glucose into lipids); assay type: cell-based; conditions: isolated rat adipocytes
Method: Adipocytes were prepared by incubating epididymal and perirenal fat pads obtained from male rats weighing 200-300 g with 1.0 mg/ml collagenase for 60 min at 37° C., followed by filtration through gauze and then through fine-mesh silk. Cells were washed twice by flotation in a clinical centrifuge before suspension for use. The incubation medium was Krebs-Ringer bicarbonate containing half the recommended calcium, 0.5 mM glucose, and 3% fatty acid free bovine serum albumin, with 95% O2 -5% CO2 as the gas phase. […] Cells were preincubated for 45 min at 37° C. before the addition of [3-^3 H] glucose. Incubation was continued for 60 min and stopped by the addition of 0.2 ml of 5N H2 SO4 and 0.2 ml of corn oil to aid in the extraction of lipids. Samples were extracted with 10 ml of Soluscint-0® for 30 min at room temperature before counting the radioactivity in a scintillation counter. Under these conditions, [3-^3 H] glucose was not extracted into the organic phase containing the scintillation fluors and was essentially uncounted.
Stimulation, expressed as per cent of maximum, was plotted as a function of the agonist concentration. The data points represent the mean of triplicate determinations in representative assays performed four times. […]
Stimulation, expressed as per cent of maximum, was plotted as a function of the agonist concentration. […]

[4] = tested on: Guinea pig antiserum to porcine insulin; test: Insulin radioimmunoassay; assay type: binding; conditions: competition with 125I-insulin for anti-insulin antiserum; ratio of slopes
Method: After incubation at room temperature overnight, 0.2 ml of the precipitating antibody (goat anti-guinea pig-γ globulin) was added, and the tubes were further incubated overnight at room temperature. Immune precipitates were collected on cellulose-acetate filters and washed with two successive 1.0 mL portions of ice-cold assay buffer. Filters were dried and radioactivity was counted in a scintillation counter in Filtron-X®.

T1 sequence (P15127 27-759 limits assumed): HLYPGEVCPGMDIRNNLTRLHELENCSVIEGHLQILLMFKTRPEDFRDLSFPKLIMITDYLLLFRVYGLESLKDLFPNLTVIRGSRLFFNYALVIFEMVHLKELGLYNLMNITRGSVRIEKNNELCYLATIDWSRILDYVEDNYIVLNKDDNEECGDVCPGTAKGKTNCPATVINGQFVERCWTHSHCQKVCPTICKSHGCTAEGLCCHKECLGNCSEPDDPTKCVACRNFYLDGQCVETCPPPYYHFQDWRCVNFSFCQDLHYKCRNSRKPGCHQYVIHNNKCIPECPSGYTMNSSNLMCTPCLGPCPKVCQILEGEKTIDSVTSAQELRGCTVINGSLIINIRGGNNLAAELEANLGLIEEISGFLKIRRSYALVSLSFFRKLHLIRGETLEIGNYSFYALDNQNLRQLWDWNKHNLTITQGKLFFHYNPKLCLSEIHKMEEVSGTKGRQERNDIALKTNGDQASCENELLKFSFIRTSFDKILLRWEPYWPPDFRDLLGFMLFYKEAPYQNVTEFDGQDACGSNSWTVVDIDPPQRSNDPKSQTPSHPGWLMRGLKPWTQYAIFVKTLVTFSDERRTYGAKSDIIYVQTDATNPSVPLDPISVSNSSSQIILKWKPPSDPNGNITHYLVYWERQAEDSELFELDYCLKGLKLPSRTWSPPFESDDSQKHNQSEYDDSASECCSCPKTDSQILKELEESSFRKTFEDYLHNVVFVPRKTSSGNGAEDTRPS

Question: For “des-pentapeptide(B26-B30)-[Phe^B25 -α-carboxamide]insulin”, which “potency compared with natural insulin” value [1] is on record?
Answer: Its value is “comparable potency”.

Question: Which “potency compared with natural insulin” value [1] does the source give for [Leu^B10 ]- insulin here?
Answer: Its value is “reduced potency”.

Question: Which results are given for [10-Aspartic acid-B] human insulin?
Answer: potency relative to bovine insulin (concentration ratio required to inhibit 50% of the specific binding of 125I-insulin) ([2]; rat liver plasma membranes, 45 min at 24° C., pH 7.4, assay performed four times): about 534±146%; binding to the insulin receptor, times more tightly than natural insulins ([2]; relative to natural insulins): about five times more tightly; maximum stimulation of lipogenesis compared with bovine insulin [3]: full agonist; relative potency (concentration ratio required to produce 50% of the maximum stimulation of lipogenesis) relative to bovine insulin ([3]; [3-3H] glucose, 60 min, assays performed four times): 435±144%; potency in radioimmunoassay relative to bovine insulin [4]: approximately equal potency

Question: With “des-pentapeptide(B26-B30)-[Tyr^B25 -α-carboxamide]insulin” as the substance, how does the “potency greater than insulin” value ([1]; literature (Nakagawa et al.; Casareto et al.)) read?
Answer: The value was 270-300%.

Question: Which “potency compared with natural insulin” value [1] does the source give for [Lys^B10 ] insulin here?
Answer: The value was “reduced potency”.

Question: For [Asn^B10 ]- insulin, which “potency compared with natural insulin” value [1] is on record?
Answer: Its value is “reduced potency”.
